US20220153728A1, “COMPOUNDS, COMPOSITIONS AND METHODS” (DENALI THERAPEUTICS INC., priority 2017, published 2022)

These molecules were tested against LRRK2 G2019S (Homo sapiens, UniProt Q5S007, G2019S) (assay: LRRK2 G2019S TR-FRET kinase assay (LRRKtide substrate)). Settings: LRRK2 G2019S enzyme 5 nM, 134 μM ATP, 60 minute reaction, 23° C.
Format: biochemical
Description: Materials: • LRRK2 G2019S enzyme • Substrate (LRRKtide) • ATP • TR-FRET dilution buffer • pLRRKtide antibody • 384-well assay plate • DMSO
Enzyme Reaction Conditions
23° C. reaction temperature
10 μL total reaction volume
Detection Reaction Conditions
1×TR-FRET dilution buffer
2 nM antibody • 23° C. reaction temperature • 10 μL total reaction volume
Compounds are prepared by initially diluting to 1 mM with DMSO. 35 μL of reference compound solution, 35 μL of test compound solution, and 35 μL HPE are successively added to the source plate (384-well assay plate, Labcyte). The plates are centrifuged at 2500 rpm for 1 minute and sealed in foil. POD is used to perform a 3.162 fold serial dilution and 100 nL of reference compound solution, test compound solution, HPE and ZPE are transferred to assay plates. The assay plate is centrifuged at 2500 rpm for 1 minute, and sealed with foil.
To perform the enzyme reaction, 5 μL of LRRKtide substrate and kinase mixture in assay buffer is added to all wells of the assay plate. The plate is centrifuged to concentrate the mixture at the bottom of the wells. The assay plate is incubated at 23° C. for 20 minutes. Following incubation, 5 μL of 2×ATP in assay buffer is added to each well, and plates are centrifuged to concentrate the mixture at the bottom of the wells. The plate is incubated at 23° C. for 60 minutes.
To perform the detection of the reaction, EDTA completely mixed in TR-FRET dilution buffer is added to antibody reagent. 10 μL of detection reagent is added to all wells of each well of the assay plate and the plate is centrifuged to concentrate the mixture at the bottom of the wells. The plate is then incubated at 23° C. for 60 minutes. Plates are read on Perkin Elmer Envision 2104 instrument in TR-FRET mode using a 340 nm excitation filter, 520 nm fluorescence emission filter, and 490 or 495 nm terbium emission filter.

Chain of LRRK2 G2019S (Q5S007 whole entry G2019S): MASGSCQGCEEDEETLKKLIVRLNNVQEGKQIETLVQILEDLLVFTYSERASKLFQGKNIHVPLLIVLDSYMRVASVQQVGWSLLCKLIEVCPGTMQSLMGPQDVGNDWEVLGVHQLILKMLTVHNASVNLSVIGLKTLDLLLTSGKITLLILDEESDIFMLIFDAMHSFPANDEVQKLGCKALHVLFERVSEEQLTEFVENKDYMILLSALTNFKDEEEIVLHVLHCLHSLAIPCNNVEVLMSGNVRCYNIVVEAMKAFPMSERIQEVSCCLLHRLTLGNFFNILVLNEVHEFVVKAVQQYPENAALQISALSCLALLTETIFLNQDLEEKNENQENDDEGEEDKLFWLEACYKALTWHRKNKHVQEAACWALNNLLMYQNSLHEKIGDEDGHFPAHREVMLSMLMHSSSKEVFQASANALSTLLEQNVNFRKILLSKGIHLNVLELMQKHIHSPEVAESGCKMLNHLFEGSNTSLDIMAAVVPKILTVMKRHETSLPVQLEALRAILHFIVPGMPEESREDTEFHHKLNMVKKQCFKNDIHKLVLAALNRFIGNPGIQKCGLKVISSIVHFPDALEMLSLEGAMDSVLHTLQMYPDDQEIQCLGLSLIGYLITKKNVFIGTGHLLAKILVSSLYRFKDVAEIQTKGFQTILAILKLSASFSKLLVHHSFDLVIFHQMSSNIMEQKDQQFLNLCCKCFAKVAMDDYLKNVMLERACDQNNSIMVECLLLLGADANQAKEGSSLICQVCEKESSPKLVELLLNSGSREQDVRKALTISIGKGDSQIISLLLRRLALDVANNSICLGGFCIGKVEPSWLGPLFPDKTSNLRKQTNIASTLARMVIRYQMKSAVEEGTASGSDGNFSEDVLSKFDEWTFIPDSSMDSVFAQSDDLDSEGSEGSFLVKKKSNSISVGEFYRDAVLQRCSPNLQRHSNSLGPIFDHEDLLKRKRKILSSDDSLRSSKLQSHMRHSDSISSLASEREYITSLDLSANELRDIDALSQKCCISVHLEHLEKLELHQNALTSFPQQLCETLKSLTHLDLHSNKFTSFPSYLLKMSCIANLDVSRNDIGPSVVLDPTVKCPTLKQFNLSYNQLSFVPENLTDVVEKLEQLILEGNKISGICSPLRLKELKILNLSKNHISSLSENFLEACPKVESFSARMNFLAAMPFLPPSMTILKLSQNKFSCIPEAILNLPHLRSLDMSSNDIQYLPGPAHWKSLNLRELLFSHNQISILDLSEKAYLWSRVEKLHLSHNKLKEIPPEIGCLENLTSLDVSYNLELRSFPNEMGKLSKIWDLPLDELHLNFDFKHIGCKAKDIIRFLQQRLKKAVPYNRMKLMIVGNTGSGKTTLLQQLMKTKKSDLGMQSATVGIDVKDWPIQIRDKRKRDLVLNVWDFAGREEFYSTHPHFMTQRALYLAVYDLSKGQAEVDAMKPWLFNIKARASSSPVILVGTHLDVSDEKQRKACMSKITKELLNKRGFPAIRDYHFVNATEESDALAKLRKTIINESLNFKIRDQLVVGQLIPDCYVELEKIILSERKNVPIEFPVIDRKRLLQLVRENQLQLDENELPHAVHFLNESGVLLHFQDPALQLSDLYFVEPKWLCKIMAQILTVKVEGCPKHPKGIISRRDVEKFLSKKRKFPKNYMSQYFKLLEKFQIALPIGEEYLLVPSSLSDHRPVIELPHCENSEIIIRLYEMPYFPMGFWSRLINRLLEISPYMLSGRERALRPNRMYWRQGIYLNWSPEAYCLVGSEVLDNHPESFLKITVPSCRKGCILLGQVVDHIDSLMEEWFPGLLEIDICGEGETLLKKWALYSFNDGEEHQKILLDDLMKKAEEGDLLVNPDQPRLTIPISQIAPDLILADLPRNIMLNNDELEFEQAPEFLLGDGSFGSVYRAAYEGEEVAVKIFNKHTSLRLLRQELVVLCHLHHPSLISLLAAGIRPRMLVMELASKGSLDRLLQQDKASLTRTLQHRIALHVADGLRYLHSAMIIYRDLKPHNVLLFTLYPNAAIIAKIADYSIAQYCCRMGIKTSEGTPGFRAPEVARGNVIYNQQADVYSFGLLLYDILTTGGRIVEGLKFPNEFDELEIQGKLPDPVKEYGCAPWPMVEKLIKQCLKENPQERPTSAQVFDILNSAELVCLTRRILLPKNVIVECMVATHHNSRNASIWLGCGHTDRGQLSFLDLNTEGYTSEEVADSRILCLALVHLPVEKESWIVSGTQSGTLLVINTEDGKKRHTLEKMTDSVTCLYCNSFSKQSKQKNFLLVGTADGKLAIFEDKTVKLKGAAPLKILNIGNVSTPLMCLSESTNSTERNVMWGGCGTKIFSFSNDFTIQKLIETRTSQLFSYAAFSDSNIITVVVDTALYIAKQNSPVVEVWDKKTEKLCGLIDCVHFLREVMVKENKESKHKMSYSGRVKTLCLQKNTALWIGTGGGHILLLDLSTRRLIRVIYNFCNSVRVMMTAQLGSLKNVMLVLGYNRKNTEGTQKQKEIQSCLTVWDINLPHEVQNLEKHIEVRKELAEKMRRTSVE

Row | IC50 | Structure (SMILES)
1 | < 30 nM | CNc1nc(Nc2cn(C3C[C@@]3(C)C#N)nc2C2CC2)ncc1C(F)(F)F (single isomer, unassigned) [Compound 2]
2 | < 30 nM | CNc1nc(Nc2cn(C3C[C@]3(C)C#N)nc2C2CC2)ncc1C(F)(F)F (single isomer, unassigned) [Compound 3]
3 | < 30 nM | CCNc1nc(Nc2cn(C3C[C@@]3(C)C#N)nc2C2CC2)ncc1C(F)(F)F (single isomer, unassigned) [Compound 1, 2-(3-cyclopropyl-4-((4-(ethylamino)-5-(trifluoromethyl)pyrimidin-2-yl)amino)-1H-pyrazol-1-yl)-1-methylcyclopropanecarbonitrile]
4 | < 30 nM | Cc1nn(C2C[C@]2(C)C#N)cc1Nc1ncc(C(F)(F)F)c(NC2CC2)n1 (single isomer, unassigned) [Compound 7]
5 | < 30 nM | CCNc1nc(Nc2cn(C3C[C@@]3(C)C#N)nc2C)ncc1C(F)(F)F (single isomer, unassigned) [Compound 8]
6 | < 30 nM | Cc1c(Nc2ncc(C(F)(F)F)c(NC3CC3)n2)cnn1C1C[C@]1(C)C#N (single isomer, unassigned) [Compound 15]
7 | < 30 nM | CCNc1nc(Nc2cn(C3C[C@]3(C)C#N)nc2C2CC2)ncc1C(F)(F)F (single isomer, unassigned) [Compound 4, 2-(3-cyclopropyl-4-((4-(ethylamino)-5-(trifluoromethyl)pyrimidin-2-yl)amino)-1H-pyrazol-1-yl)-1-methylcyclopropanecarbonitrile]
8 | < 30 nM | CNc1nc(Nc2cn(C3C[C@@]3(C)C#N)nc2C)ncc1C(F)(F)F (single isomer, unassigned) [Compound 10]
9 | < 30 nM | CCNc1nc(Nc2cn(C3C[C@]3(C)C#N)nc2C)ncc1Br (single isomer, unassigned) [Compound 11]
10 | < 30 nM | CCNc1nc(Nc2cn(C3C[C@]3(C)C#N)nc2C)ncc1C(F)(F)F (single isomer, unassigned) [Compound 6]
11 | < 30 nM | CCNc1nc(Nc2cnn(C3C[C@H]3C#N)c2C)ncc1C(F)(F)F (single isomer, unassigned) [Compound 19]
12 | < 30 nM | Cc1nn(C2C[C@]2(C)C#N)cc1Nc1ncc(C(F)(F)F)c(NC2(C)CC2)n1 (single isomer, unassigned) [Compound 13]
13 | < 30 nM | Cc1c(Nc2ncc(C(F)(F)F)c(NC3CC3)n2)cnn1C1C[C@@]1(C)C#N (single isomer, unassigned) [Compound 16]
14 | < 30 nM | Cc1nn(C2C[C@@]2(C)C#N)cc1Nc1ncc(C(F)(F)F)c(NC2CC2)n1 (single isomer, unassigned) [Compound 9]
15 | < 30 nM | CCNc1nc(Nc2cn(C3C[C@@]3(C)C#N)nc2C)ncc1Br (single isomer, unassigned) [Compound 12]
16 | < 30 nM | CNc1nc(Nc2cn(C3C[C@]3(C)C#N)nc2C)ncc1C(F)(F)F (single isomer, unassigned) [Compound 5]
17 | < 30 nM | Cc1nn(C2C[C@@]2(C)C#N)cc1Nc1ncc(C(F)(F)F)c(NC2(C)CC2)n1 (single isomer, unassigned) [Compound 14]
18 | < 30 nM | CCNc1nc(Nc2cnn(C3C[C@@H]3C#N)c2C)ncc1C(F)(F)F (single isomer, unassigned) [Compound 18]
19 | < 30 nM | CCNc1nc(Nc2cn(C3C[C@H]3C#N)nc2C2CC2)ncc1C(F)(F)F (single isomer, unassigned) [Compound 17]
